This passage reports CC90 and EC90 results from patent publication US20120202794A1 (priority 2011, published 2012).

Data set [1] deals with Huh7, HepG2, BxPC3, or CEM cells. Nature of the data set: Cell cytotoxicity assay (MTS), CC90 as reported in Table 1, cell line not stated. Type of data set: cell-based. The following applies: MTS assay; 8 days incubation; cell line not given. In short, it runs like this:
(§1)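 MTS read-out (490 nm, 2 h dye step) after 8-day exposure at 37° C. Huh7, HepG2, BxPC3 were seeded at 2×10^3 and CEM at 5×10^3 cells/well, with compound serially diluted from 100 μM. CC90 comes from comparison with untreated control wells.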

The subject of data set [2] is HCV Replicon 1b. Nature of the data set: HCV inhibition assay, HCV replicon 1b (Clone A or ET-lunet cells; RT-PCR or luciferase reporter). The following applies: Hepatitis C virus, 96 h, HCV replicon 1b; 4 days incubation; read-out: Replicon 1b potency EC90. Type of data set: cell-based. A digest of the protocol: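 Inhibition read either as luciferase signal (ET replicon) or as HCV 5′-NTR RNA by RT-PCR relative to rRNA, % = (1−2^−ΔΔCt)×100, against DMSO controls, giving EC50 and EC90. Cells: Clone A or ET-lunet, seeded 1500 or 3000/well, exposed 4 days at 37 °C, 5% CO2, 0.5% DMSO.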

The subject of data set [3] is genotype (GT) 1a H77 replicon. Nature of the data set: Replicon assay, H77 GT 1a replicon in Huh7-Lunet cells (RT-PCR). The format is cell-based, HCV. The following applies: Hepatitis C virus, GT1A, Huh-7, 96 h, 4 days incubation, read-out: RT-PCR H77 1a Potency EC90. On the procedure: Cell Line and Maintenance: The genotype (GT) 1a H77 replicon (Apath LLC Brooklyn, N.Y.) was stably expressed in Huh7-Lunet cells (kindly provided by R. Bartenschlager University of Heidelberg, Heidelberg, Germany) and maintained in Dulbecco's modified Eagle's medium supplemented with 10% fetal bovine serum, 0.1 mM non essential amino acids (NEAA), 4 mM L-glutamine, 1 mM sodium pyruvate and 0.750 mg/mL G418 (Geneticin) (Invitrogen, Carlsbad, Calif.).
Replicon Assay: Inhibition of HCV in the H77 GT 1a replicon (Apath LLC, Brooklyn, N.Y.) was measured by Real-Time PCR (RT-PCR) Replicon cells were added to the plate at 1500 cells/well in 50 μL of medium and 50 μL of 2× drug dilutions were added (in duplicate) per well in a 96 well plate to total 100 μL per well. The plate was incubated at 37° C. in a humidified 8% CO2 atmosphere for 4 days. After incubation, the supernatant was discarded and total RNA was extracted with RNeasy 96 (Qiagen, Valencia Calif.) per manufacturer's instructions. The extracted RNA was amplified as described by Stuyver et al., J. Virol. (2003) 77: 10689-10694, and the ΔCt values for HCV were determined and the EC90 was calculated using GraphPad Prism software (San Diego, Calif.). A “no drug” (medium only) control was used to determine maximum amount of HCV RNA.

Data set [4] in a line: Cell cytotoxicity assay (MTS), CC90 as reported in Table 1, cell line not stated. The format is cell-based. The following applies: human; MTS assay; 8 days incubation; cell line not given. In short, it runs like this: as §1

Turning to `CC(C)C[C@H]1CN(C(=O)c2cc(-c3ccc([N+](=O)[O-])cc3)on2)[C@@H](CC(C)C)C(=O)N1` [Compound 273, (3S,6S)-3,6-diisobutyl-4-(5-(4-nitrophenyl)isoxazole-3-carbonyl)piperazin-2-one], the CC90 in data set [1] is more than 10000 nM. Further, in data set [2], the EC90 was 3760 nM.

As to `CC(C)C[C@H]1C(=O)N[C@@H](c2ccccc2)CN1C(=O)c1noc(-c2ccc(F)cc2)n1` [Compound 292, (3S,6S)-4-(5-(4-Fluorophenyl)-1,2,4-oxadiazole-3-carbonyl)-3-isobutyl-6-phenylpiperazin-2-one], the 90% effect concentration (EC90) came to 79 nM in data set [3] and 78 nM in data set [2]. In addition, in data set [4], the CC90 at 8 days was more than 10000 nM.

With `CC(C)C[C@H]1C(=O)N[C@@H](c2ccccc2F)CN1C(=O)c1cc(-c2ccc(F)cc2)on1` [Compound 355, (3S,6S)-6-(2-fluorophenyl)-4-(5-(4-fluorophenyl)isoxazole-3-carbonyl)-3-isobutyl-piperazin-2-one], the results for the EC90 in data set [3] and in data set [2] were 160 nM and 93 nM, respectively. In data set [4], this compound came in with a CC90 at 8 days of more than 10000 nM.

As for `CC(C)C[C@H]1C(=O)N[C@@H](c2ccccc2F)CN1C(=O)c1noc(-c2ccc(F)cc2)n1` [Compound 370, (3S,6S)-6-(2-fluorophenyl)-4-(5-(4-fluorophenyl)-1,2,4-oxadiazole-3-carbonyl)-3-isobutylpiperazin-2-one], the EC90 in data set [3] turned out to be 99 nM; in data set [2], 61 nM. Moreover, in data set [4], the CC90 at 8 days was more than 10000 nM.

With `CC(C)C[C@H]1C(=O)N[C@@H](c2ccccc2F)CN1C(=O)[C@@H]1C[C@H]1c1ccc(F)cc1` [Compound 373, (3S,6S)-6-(2-fluorophenyl)-4-((1R,2R)-2-(4-fluorophenyl)cyclopropanecarbonyl)-3-isobutylpiperazin-2-one], the EC90 amounted to 87 nM in data set [3] and 57 nM in data set [2]. In data set [4], this compound registered a CC90 at 8 days of more than 10000 nM.

As for `C/C=C/[C@H]1CN(C(=O)c2cc(-c3ccc(F)cc3)on2)[C@@H](CC(C)C)C(=O)N1` [Compound 424, (3S,6S)-4-(5-(4-fluorophenyl)isoxazole-3-carbonyl)-3-isobutyl-6-((E)-prop-1-en-1-yl)piperazin-2-one], the EC90 in data set [3] came out at 82 nM; in data set [2], 64 nM. In addition, the CC90 at 8 days in data set [4] was more than 10000 nM.

On to `CC(C)C[C@H]1C(=O)N[C@@H](c2cccs2)CN1C(=O)c1cc(-c2ccc(F)cc2)on1` [Compound 426, (3S,6R)-4-(5-(4-fluorophenyl)isoxazole-3-carbonyl)-3-isobutyl-6-(thiophen-2-yl)piperazin-2-one], for which the figures for the EC90 in data set [3] and in data set [2] were 48 nM and 18 nM, respectively. The compound further gave a CC90 at 8 days in data set [4] of more than 10000 nM.

Take `CC(C)C[C@H]1C(=O)N[C@@H](c2cccs2)CN1C(=O)c1noc(-c2ccc(F)cc2)n1` [Compound 430, (3S,6R)-4-(5-(4-fluorophenyl)-1,2,4-oxadiazole-3-carbonyl)-3-isobutyl-6-(thiophen-2-yl)piperazin-2-one]: the EC90 was determined as 18 nM in data set [3] and 2.6 nM in data set [2]. In data set [4], this compound had a CC90 at 8 days of more than 10000 nM.

With `CC(C)C[C@H]1C(=O)N[C@@H](c2cccs2)CN1C(=O)c1cc(-c2ccc(F)cc2)no1` [Compound 432, (3S,6R)-4-(3-(4-fluorophenyl)isoxazole-5-carbonyl)-3-isobutyl-6-(thiophen-2-yl)piperazin-2-one], the EC90 in data set [3] is 22 nM; in data set [2], 20 nM. The same compound yielded a CC90 at 8 days in data set [4] of more than 10000 nM.

As to `CC(C)C[C@H]1C(=O)N[C@@H](c2cccs2)CN1C(=O)[C@@H]1C[C@H]1c1ccc(F)cc1` [Compound 433, (3S,6R)-4-((1R,2R)-2-(4-fluorophenyl)cyclopropanecarbonyl)-3-isobutyl-6-(thiophen-2-yl)piperazin-2-one], the EC90 in data set [3] came to 30 nM; in data set [2], 18 nM. This compound also gave a CC90 at 8 days in data set [4] of more than 10000 nM.

`CC(C)C[C@H]1C(=O)N[C@@H](c2ccsc2)CN1C(=O)c1cc(-c2ccc(F)cc2)on1` [Compound 436, (3S,6S)-4-(5-(4-fluorophenyl)isoxazole-3-carbonyl)-3-isobutyl-6-(thiophen-3-yl)piperazin-2-one]: the figures for the EC90 in data set [3] and in data set [2] were 38 nM and 18 nM, respectively. In data set [4], the CC90 at 8 days was more than 10000 nM.

For the compound `CC(C)C[C@H]1C(=O)N[C@@H](c2ccsc2)CN1C(=O)[C@@H]1C[C@H]1c1ccc(F)cc1` [Compound 445, (3S,6S)-4-((1R,2R)-2-(4-fluorophenyl)cyclopropanecarbonyl)-3-isobutyl-6-(thiophen-3-yl)piperazin-2-one], the EC90 turned out to be 20 nM in data set [3] and 27 nM in data set [2]. Also, the CC90 at 8 days in data set [4] is more than 10000 nM.

For the compound `CC(C)C[C@H]1C(=O)N[C@@H](c2ccsc2)CN1C(=O)c1noc(-c2ccc(F)cc2)n1` [Compound 446, (3S,6S)-4-(5-(4-fluorophenyl)-1,2,4-oxadiazole-3-carbonyl)-3-isobutyl-6-(thiophen-3-yl)piperazin-2-one], the EC90 in data set [3] turned out to be 28 nM; in data set [2] it was 14 nM. Besides, the CC90 at 8 days in data set [4] is more than 10000 nM.

With `CC(C)C[C@H]1C(=O)N[C@@H](c2ccsc2Cl)CN1C(=O)c1cc(-c2ccc(F)cc2)on1` [Compound 496, (3S,6S)-6-(2-chlorothiophen-3-yl)-4-(5-(4-fluorophenyl)isoxazole-3-carbonyl)-3-isobutylpiperazin-2-one], the results for the EC90 in data set [3] and in data set [2] were 65 nM and 11 nM, respectively. In data set [4], this compound registered a CC90 at 8 days of more than 10000 nM.

With `CC(C)C[C@H]1C(=O)N[C@@H](c2ccsc2Cl)CN1C(=O)c1noc(-c2ccc(F)cc2)n1` [Compound 499, (3S,6S)-6-(2-chlorothiophen-3-yl)-4-(5-(4-fluorophenyl)-1,2,4-oxadiazole-3-carbonyl)-3-isobutylpiperazin-2-one], the values for the EC90 in data set [3] and in data set [2] were 83 nM and 23 nM, respectively. The same compound had a CC90 at 8 days in data set [4] of more than 10000 nM.

In the case of `CC(C)C[C@H]1C(=O)N[C@@H](c2cnco2)CN1C(=O)[C@@H]1C[C@H]1c1ccc(F)cc1` [Compound 521, (3S,6R)-4-((1R,2R)-2-(4-fluorophenyl)cyclopropanecarbonyl)-3-isobutyl-6-(oxazol-5-yl)piperazin-2-one], the EC90 was 4 nM in data set [3] and 22 nM in data set [2]. In data set [4], this compound returned a CC90 at 8 days of more than 10000 nM.

For `CC(C)C[C@H]1C(=O)N[C@@H](c2ccc[nH]2)CN1C(=O)c1cc(-c2ccc(F)cc2)on1` [Compound 523, (3S,6R)-4-(5-(4-fluorophenyl)isoxazole-3-carbonyl)-3-isobutyl-6-(1H-pyrrol-2-yl)piperazin-2-one], the CC90 at 8 days in data set [4] is more than 10000 nM. In data set [2], the EC90 turned out to be 1060 nM.

`CC(C)C[C@H]1C(=O)N[C@H](c2ccc[nH]2)CN1C(=O)c1cc(-c2ccc(F)cc2)on1` [Compound 524, (3S,6S)-4-(5-(4-fluorophenyl)isoxazole-3-carbonyl)-3-isobutyl-6-(1H-pyrrol-2-yl)piperazin-2-one] returned a CC90 at 8 days in data set [4] of more than 10000 nM. Further, in data set [2], the EC90 was more than 10000 nM.

In data set [4], `CC(C)C[C@H]1C(=O)N[C@@H](c2ccccc2)N1C(=O)c1cc(-c2ccc(F)cc2)on1` [Compound 528, (2R,5S)-1-(5-(4-fluorophenyl)isoxazole-3-carbonyl)-5-isobutyl-2-phenylimidazolidin-4-one] had a CC90 at 8 days of more than 10000 nM. Moreover, the EC90 in data set [2] was more than 10000 nM.

Compound `CC(C)C[C@H]1C(=O)N[C@H](c2ccccc2)N1C(=O)c1cc(-c2ccc(F)cc2)on1` [Compound 529, (2S,5S)-1-(5-(4-fluorophenyl)isoxazole-3-carbonyl)-5-isobutyl-2-phenylimidazolidin-4-one] had a CC90 at 8 days in data set [4] of more than 10000 nM. The EC90 in data set [2] is more than 10000 nM.

`CC(C)C[C@H]1C(=O)N[C@@H](c2ccccc2)N1C(=O)[C@H]1C[C@@H]1c1ccccc1` [Compound 530, (2R,5S)-5-isobutyl-2-phenyl-1-((1S,2S)-2-phenylcyclopropanecarbonyl)imidazolidin-4-one] registered a CC90 at 8 days in data set [4] of more than 10000 nM. Besides, in data set [2], the EC90 was more than 10000 nM.

With `CC(C)C[C@H]1C(=O)N[C@@H](c2ccccc2)N1C(=O)[C@H]1C[C@@H]1c1ccc(F)cc1` [Compound 532, (2R,5S)-1-((1S,2S)-2-(4-fluorophenyl)cyclopropanecarbonyl)-5-isobutyl-2-phenyl-imidazolidin-4-one], the CC90 at 8 days in data set [4] is more than 10000 nM. For the same compound, the EC90 in data set [2] was more than 10000 nM.
